Measured values taken from ChEMBL document CHEMBL1201862, “PubChem BioAssay data set” (2004).
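Tested at 5 concentrations; 48 h exposure; 96-well plates; endpoints linearly interpolated, else capped at highest concentration. GI50 is the concentration that inhibits growth by half.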 Activity calls are given as the source filed them. Rule as the data show it: active = GI50 up to about 1.1 µM and inactive = higher.

Tests used:
Experiment in all cases: NCI-60 cell line screen, 48 h
[1] = system: TK-10
[2] = system: CAKI-1
[3] = system: SF-295
[4] = system: OVCAR-4
[5] = system: Malme-3M
[6] = system: NCI-H226
[7] = system: RPMI-8226
[8] = system: HL-60
[9] = system: SF-539
[10] = system: M14
[11] = system: NCI-H522
[12] = system: RXF 393
[13] = system: COLO 205
[14] = system: HT-29
[15] = system: U-251
[16] = system: SNB-75
[17] = system: HCC 2998

Measured: GI50

O=C(OCc1ccccc1C1CSCSC1)c1cc(C(=O)OCc2ccccc2C2CSCSC2)c(C(=O)OCc2ccccc2C2CSCSC2)cc1C(=O)OCc1ccccc1C1CSCSC1
inactive: [1] > 100 µM | [2] > 100 µM | [3] > 100 µM | [4] > 100 µM | [5] > 100 µM | [6] > 100 µM | [7] > 100 µM | [8] > 100 µM | [9] > 100 µM | [10] > 100 µM | [11] > 100 µM | [12] > 100 µM | [13] > 100 µM | [14] > 100 µM | [15] > 100 µM | [16] 29.4 µM

NCCCNCc1c2ccccc2c(CNCCCN)c2ccccc12
inactive: [1] 32.5 µM | [2] 30.5 µM | [17] 17 µM | [3] 22.3 µM | [4] 11.1 µM | [5] 11.7 µM | [8] 14.4 µM | [9] 14.6 µM | [10] > 10 µM | [11] 5.96 µM | [12] 15.2 µM | [13] 7.66 µM | [14] 18.2 µM | [15] 33.4 µM | [16] 19.8 µM

OCC(O)C(O)C(O)C(O)c1nnn[nH]1 (configuration not stated)
inactive: [2] > 100 µM | [3] > 100 µM | [4] > 100 µM | [5] > 100 µM | [6] > 100 µM | [7] > 100 µM | [8] > 100 µM | [9] > 100 µM | [10] > 100 µM | [11] > 100 µM | [13] > 100 µM | [14] > 100 µM | [15] > 100 µM

Cc1ccc(NC(=O)c2cc3cc(/N=N/c4ccccc4C(=O)O)ccc3oc2=O)cc1
inactive: [1] 58.9 µM | [3] 44.4 µM | [5] 43.2 µM | [6] 39.4 µM | [7] 18.6 µM | [8] 26.7 µM | [9] 30.5 µM | [10] 55.3 µM | [11] 30.1 µM | [12] 51.4 µM | [13] 35.3 µM | [14] 38.5 µM | [15] 43.2 µM | [16] 45.9 µM

CC(O)C(C(=O)O)N(CC1(O)OCC(O)C(O)C1O)N=O (configuration not stated)
inactive: [1] > 100 µM | [17] > 100 µM | [5] > 100 µM | [7] > 100 µM | [8] > 100 µM | [9] > 100 µM | [10] > 100 µM | [11] > 100 µM | [12] > 100 µM | [13] > 100 µM | [14] > 100 µM | [15] > 100 µM | [16] > 100 µM

CCCCCCCCCCCCCCCC(=O)OCC1OC(n2cc(F)c(=O)[nH]c2=O)C(N)C(O)C1O (configuration not stated)
inactive: [1] 21.9 µM | [2] 21 µM | [17] 14.5 µM | [3] 17.1 µM | [4] 15.8 µM | [5] 19.4 µM | [6] 17.5 µM | [7] 23.3 µM | [8] 19.5 µM | [9] 19.4 µM | [10] 17.8 µM | [11] 17.8 µM | [13] 18.5 µM | [14] 20.6 µM | [15] 18.5 µM | [16] 19.2 µM

COc1cc(-c2nccc3cc(OC)c(OC)cc23)ccc1O
inactive: [1] 42 µM | [2] 21.3 µM | [17] > 100 µM | [3] 25.6 µM | [4] 68.4 µM | [5] > 100 µM | [6] > 100 µM | [7] 21.4 µM | [8] 17.7 µM | [9] 35.4 µM | [10] 45.9 µM | [11] 35.8 µM | [13] 40.5 µM | [14] 30.8 µM | [15] 70.6 µM | [16] 75.7 µM

Brc1ccccc1C1SCc2nc3ccccc3n21 (configuration not stated)
inactive: [1] 20 µM | [2] 20.7 µM | [3] 23.8 µM | [4] 23.8 µM | [5] 18.8 µM | [6] 17.1 µM | [7] 13.7 µM | [8] 6.71 µM | [9] 17.4 µM | [10] 17.2 µM | [11] 13.2 µM | [12] 9.33 µM | [13] 16.7 µM | [14] 23.5 µM | [15] 15.7 µM | [16] 21.7 µM

C#CCNC(=O)N(CC#C)N=O
inactive: [1] > 100 µM | [2] > 100 µM | [17] > 100 µM | [3] > 100 µM | [4] > 100 µM | [5] > 100 µM | [6] > 100 µM | [8] 25.3 µM | [9] > 100 µM | [10] > 100 µM | [11] 19.5 µM | [12] > 100 µM | [14] > 100 µM | [15] > 100 µM | [16] > 100 µM

COc1cc(Br)c(/C=N\c2cccc3ccc(OS(=O)(=O)c4ccc([N+](=O)[O-])cc4)cc23)cc1OC
inactive: [2] 6.19 µM | [17] 36.4 µM | [3] 5.06 µM | [4] > 100 µM | [5] > 100 µM | [6] > 100 µM | [7] > 100 µM | [9] > 100 µM | [11] 48 µM | [12] > 100 µM | [13] > 100 µM | [14] > 100 µM | [15] > 100 µM

COCCCNC(=O)C1C(=O)N(CCCOC)C(=O)/C1=N\N (configuration not stated)
inactive: [1] > 100 µM | [17] > 100 µM | [3] > 100 µM | [4] > 100 µM | [5] > 100 µM | [7] > 100 µM | [8] > 100 µM | [9] > 100 µM | [10] > 100 µM | [11] > 100 µM | [12] > 100 µM | [13] > 100 µM | [14] > 100 µM | [15] > 100 µM | [16] 38.3 µM

COC(=O)c1c/c(=N\NC(=O)CC(=O)Nc2ccccc2Cl)c2ccccc2o1
inactive: [1] > 100 µM | [2] > 100 µM | [17] 65.3 µM | [3] > 100 µM | [4] > 100 µM | [6] 27.7 µM | [7] > 100 µM | [8] > 100 µM | [9] > 100 µM | [10] > 100 µM | [11] > 100 µM | [13] > 100 µM | [14] > 100 µM | [15] > 100 µM | [16] > 100 µM

CCN1C[C@]2(C)CC[C@H](O)C34C1C(C[C@@H]32)[C@@]1(O)CC[C@H]2C[C@@H]4[C@@H]1[C@H]2O
inactive: [1] > 100 µM | [2] > 100 µM | [3] > 100 µM | [4] > 100 µM | [5] > 100 µM | [7] > 100 µM | [8] > 100 µM | [9] > 100 µM | [10] > 100 µM | [11] > 100 µM | [12] > 100 µM | [13] > 100 µM | [14] > 100 µM | [15] > 100 µM | [16] > 100 µM
